Experiments:
[1] = biological target: T1, α-amylase derived from human salivary gland (HSA) (Homo sapiens, UniProt P0DUB6); test: In vitro amylase activity inhibition test, HSA (blue starch, Neo Amylase Test); format: biochemical; details: 37° C., 30 minutes, blue starch substrate
T1 construct: purchased International Reagents Corp. Japan Calibzyme AMY
T1 sequence (P0DUB6 16-511): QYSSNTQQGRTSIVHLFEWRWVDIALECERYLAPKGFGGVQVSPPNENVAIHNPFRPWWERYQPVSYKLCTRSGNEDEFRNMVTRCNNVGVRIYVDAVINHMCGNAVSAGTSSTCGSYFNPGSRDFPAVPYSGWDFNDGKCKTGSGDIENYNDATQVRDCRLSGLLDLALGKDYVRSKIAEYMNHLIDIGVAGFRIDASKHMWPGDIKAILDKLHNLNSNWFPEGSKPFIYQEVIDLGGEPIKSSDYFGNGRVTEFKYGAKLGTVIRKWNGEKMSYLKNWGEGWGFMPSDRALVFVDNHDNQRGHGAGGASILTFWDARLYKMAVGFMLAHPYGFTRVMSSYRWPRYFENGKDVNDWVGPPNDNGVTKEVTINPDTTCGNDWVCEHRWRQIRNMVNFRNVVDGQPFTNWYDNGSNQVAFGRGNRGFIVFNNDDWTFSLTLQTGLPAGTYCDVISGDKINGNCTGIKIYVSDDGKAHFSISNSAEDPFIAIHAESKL
Method: (§1) (1) Preparation of Human α-amylase Solution
(§2) Commercial HPA and HSA were dissolved in purified water to a concentration of 350 IU/1 to prepare an α-amylase solution. As commercial HPA and HSA, “Calibzyme AMY” (available from International Reagents Corp. Japan) was used. The α-amylase activity was determined according to the calibration curve of a commercial α-amylase determining reagent “Neo Amylase Test ┌FDAIICHI┘” (available from Daiichi Pure Chemicals Co., Ltd., Japan).
(§3) (2) Preparation of Inhibitor Solution
(§4) DOG2Az obtained in Example 1, GDOG2Az obtained in Example 2 and comparative G2Az (6^3-position non-modified maltoligosaccharide derivative disclosed in JP-A-9-278789) represented by the following formula
(§5) (3) were diluted with distilled water so that the final concentration would become 5 to 0.0001 mM. [drawing 4]
(§6) (3) Determination of Human α-amylase Inhibitory Activity (IC50) of Inhibitor Solution
(§7) 3.0 ml of distilled water, 1.0 ml of the inhibitor solution, Neo Amylase Test ┌DAIICHI┘ (produced by Daiichi Pure Chemicals Co., Ltd., Japan) and one tablet of blue starch were added to 100 μl of HPA or HSA solution, and the mixture was stirred by a mixer for about 10 seconds and then heated at 37° C. for 30 minutes. Thereafter, 1.0 ml of 0.5 N sodium hydroxide solution was added and the mixture was further stirred. Then the reaction was stopped, the solution was centrifuged (1,500 G, 5 minutes) and absorbance of the supernatant at 620 nm was measured. In blank, distilled water was used in place of the inhibitor solution. “IC50” indicates the final concentration (mM) of the inhibitor material required for inhibiting the activity of HPA or HSA solution by 50%.

[2] = biological target: T2, α-amylase derived from human pancreatic juice (HPA) (Homo sapiens, UniProt P04746); test: In vitro amylase activity inhibition test, HPA (blue starch, Neo Amylase Test); format: biochemical; details: 37° C., 30 minutes, blue starch substrate
T2 construct: purchased International Reagents Corp. Japan Calibzyme AMY
T2 sequence (P04746 16-511): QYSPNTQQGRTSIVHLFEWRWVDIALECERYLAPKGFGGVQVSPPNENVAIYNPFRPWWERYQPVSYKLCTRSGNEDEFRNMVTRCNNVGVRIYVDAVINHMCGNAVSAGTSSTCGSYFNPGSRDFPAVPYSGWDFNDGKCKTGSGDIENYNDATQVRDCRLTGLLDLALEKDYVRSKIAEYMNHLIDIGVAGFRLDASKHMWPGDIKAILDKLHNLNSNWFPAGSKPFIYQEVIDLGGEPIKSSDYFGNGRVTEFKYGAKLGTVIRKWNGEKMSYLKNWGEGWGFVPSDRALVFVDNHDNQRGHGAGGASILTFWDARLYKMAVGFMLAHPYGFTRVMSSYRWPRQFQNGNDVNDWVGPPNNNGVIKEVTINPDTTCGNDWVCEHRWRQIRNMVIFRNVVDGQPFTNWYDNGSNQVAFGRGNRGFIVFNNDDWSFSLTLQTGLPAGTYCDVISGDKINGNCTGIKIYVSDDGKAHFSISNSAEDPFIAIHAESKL
Method: as §1, §2, §3, §4, §5, §6, §7

blood glucose level = test: Anti-diabetic action: inhibition of rise of blood glucose level after corn starch intake in mice; format: in vivo, mice (Crj:CD-1(ICR)); details: for Significant test (t-test): P value, inhibition of rise of blood glucose level; for Blood glucose level before intake: mice fasted 20 hours, 0 min; for Blood glucose level before intake / Blood glucose level 30 minute after intake: n=5, in mg/dL (unit assumed); for Blood glucose level 30 minute after intake: 30 minutes
Method: Commercially available healthy mice (Crj:CD-1(ICR) with body weight of 20.5 to 26.0 g, bred by Japan Charles Liver Co., Ltd.), were used for the test.
The mice were divided into three groups (n=5). After left fasting for 20 hours, the mice of the compound-administered groups were forced to take orally DOG2Az, G2Az and corn starch as saccharide which was made into a liquid state with sterilized distilled water.
Blood was collected from the orbital vein of each mouse before and after the intake of the materials (0 and after 30 minutes), and the amount of glucose in blood was measured to determine the inhibitory effect against the rise of blood glucose level, i.e. anti-diabetic action of the compounds, after intake of corn starch. The inhibitory effect against the rise of blood glucose level was judged by t-test. Glucose concentration in blood was measured by a blood glucose level analyzer “ANTSENSE” (mfd. by Bayer Sankyo Ltd.).

Structure (SMILES) | melting point | IC50 [1] | IC50 [2] | also measured
C[C@H]1O[C@H](O[C@H]2[C@H](O)[C@@H](O)[C@@H](O[C@H]3[C@H](O)[C@@H](O)CNC[C@H]3O)O[C@@H]2CO)[C@H](O)[C@@H](O)[C@@H]1O[C@H]1O[C@H](CO)[C@@H](O)[C@H](O)[C@H]1O (hydrate or solvate) [GDOG2Az, (3R, 4R, 5R, 6S)-Hexahydro-3,5,6-trihydroxy-1H-azepine-4-yl O-(α-D-glucopyranosyl)-(1→4)-O-(6-deoxy-α-D-glucopyranosyl)-(1→4)-α-D-glucopyranoside] | 144 to 146 °C (dec.) | – | – | –
C[C@H]1O[C@H](O[C@H]2[C@H](O)[C@@H](O)[C@@H](O[C@H]3[C@H](O)[C@@H](O)CNC[C@H]3O)O[C@@H]2CO)[C@H](O)[C@@H](O)[C@@H]1O[C@H]1O[C@H](CO)[C@@H](O)[C@H](O)[C@H]1O [GDOG2Az, (3R, 4R, 5R, 6S)-Hexahydro-3,5,6-trihydroxy-1H-azepine-4-yl O-(α-D-glucopyranosyl)-(1→4)-O-(6-deoxy-α-D-glucopyranosyl)-(1→4)-α-D-glucopyranoside] | – | 0.028 mM | 0.026 mM | –
C[C@H]1O[C@H](O[C@H]2[C@H](O)[C@@H](O)[C@@H](O[C@H]3[C@H](O)[C@@H](O)CNC[C@H]3O)O[C@@H]2CO)[C@H](O)[C@@H](O)[C@@H]1O (hydrate or solvate) [DOG2Az, (3R, 4R, 5R, 6S)-Hexahydro-3,5,6-trihydroxy-1H-azepine-4-yl O-(6-deoxy-α-D-glucopyranosyl)-(1→4)-α-D-glucopyranoside] | 132 to 134 °C (dec.) | – | – | –

More lines, main results first:

melting point | IC50 [1] | IC50 [2] | Structure (SMILES) | also measured
– | 0.082 mM | 0.043 mM | OCC1OC(OC2C(CO)OC(OC3C(O)CNCC(O)C3O)C(O)C2O)C(O)C(O)C1O (stereo not drawn) [Example G2Az, reference compound] | Significant test (t-test) (blood glucose level; 60 mg/kg oral + corn starch 2,000 mg/kg): P < 1%; Blood glucose level before intake (blood glucose level; group given 60 mg/kg oral + corn starch 2,000 mg/kg): 102 ± 21; Blood glucose level 30 minute after intake (blood glucose level; mice, 60 mg/kg oral + corn starch 2,000 mg/kg): 169 ± 8
– | 0.037 mM | 0.024 mM | C[C@H]1O[C@H](O[C@H]2[C@H](O)[C@@H](O)[C@@H](O[C@H]3[C@H](O)[C@@H](O)CNC[C@H]3O)O[C@@H]2CO)[C@H](O)[C@@H](O)[C@@H]1O [DOG2Az, (3R, 4R, 5R, 6S)-Hexahydro-3,5,6-trihydroxy-1H-azepine-4-yl O-(6-deoxy-α-D-glucopyranosyl)-(1→4)-α-D-glucopyranoside] | Significant test (t-test) (blood glucose level; 5 mg/kg oral + corn starch 2,000 mg/kg): P < 0.1%; Blood glucose level before intake (blood glucose level; group given 5 mg/kg oral + corn starch 2,000 mg/kg): 101 ± 18; Blood glucose level 30 minute after intake (blood glucose level; mice, 5 mg/kg oral + corn starch 2,000 mg/kg): 136 ± 23; rise of blood glucose level in comparison with the control group (blood glucose level; mice, 5 mg/kg oral + corn starch 2,000 mg/kg, result in words): suppressed significantly

Source: patent US6596696B1, “Malto-oligosaccharide derivatives and uses thereof” (Kikkoman Corporation, priority 1999, dated 2003)
